Experimental data from the NIST ThermoML archive (doi:10.1016/j.fluid.2013.08.022).

Assay: wn = mass fraction of the nth substance listed
Conditions: 298.15 K, 101 kPa, Liquid; for viscosity: Cone and plate viscometry; for mass density: Vibrating tube method

SMILES	viscosity (w1 = 1) [mPa·s]	mass density (w1 = 1) [kg/m3]	viscosity (w2 = 0) [mPa·s]	viscosity (w2 = 0.25) [mPa·s]	viscosity (w2 = 0.5) [mPa·s]	viscosity (w2 = 0.75) [mPa·s]	mass density (w2 = 0) [kg/m3]	mass density (w2 = 0.25) [kg/m3]	mass density (w2 = 0.5) [kg/m3]	mass density (w2 = 0.75) [kg/m3]
CC#N [acetonitrile] + CCOC(=O)OCC	0.34	776.85	–	–	–	–	–	–	–	–
CCOC(=O)OCC [diethyl carbonate] + CC#N	–	–	0.74	0.65	0.57	0.45	969.17	921.12	873.25	824.87
